A word on the EC50: it is the concentration giving half of the maximal effect. A high value points to lower potency in that assay. Usually melting point stands for the temperature of the solid-liquid transition.

For data set [1], the target named is hNurr1_RXRγFL (NURR1/RXRγ heterodimer) (Homo sapiens, UniProt P43354+P48443). The data set is described as follows: Transactivation assay in Cos-7 cells, NURR-1-Gal4 / RXRγ, luciferase reporter. The following applies: for Emax: COS-7, read-out: hNurr1_RXRγFL Eff (%), efficacy in % relative to the reference XCT0135908 at 2·10^−5 M (=100%); for EC50: Cos-7 cells, overnight incubation. It is filed as cell-based. Summed up: (§1)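 Efficiency is given as a percentage of the induction produced by 2·10^−5 M XCT0135908 (100%), measured from heterodimer baseline. Read-out was luciferase after overnight exposure to compounds (10^−4–3·10^−10 M final) in Cos-7 cells transfected with NURR-1-Gal4, RXRα or RXRγ, and a Gal4 luciferase reporter.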

Data set [2] deals with hNurr1_RXRαFL (NURR1/RXRα heterodimer) (Homo sapiens, UniProt P19793+P43354). The data set is described as follows: Transactivation assay in Cos-7 cells, NURR-1-Gal4 / RXRα, luciferase reporter. It is filed as cell-based. Particulars: for Emax: COS-7, read-out: hNurr1_RXRαFL Eff (%), efficacy in % relative to the reference XCT0135908 at 2·10^−5 M (=100%); for EC50: Cos-7 cells, overnight incubation. Summed up: as §1
A general note: In a reporter assay the amount or activity of a reporter protein is the signal.

The nature of data set [3]: Plasma and cerebral pharmacokinetic profile after oral administration. Particulars: oral administration 10 mg/kg in the mouse. It is filed as in vivo, male C57B16 mouse. The protocol: A first series of in vivo assays were conducted with some compounds according to the invention, for the purpose of determining their plasma and cerebral pharmacokinetic profile in the male C57B16 mouse and thus verify that the compounds were capable of crossing the blood-brain barrier. The following procedure was used.
Male C57B16 mice (25-30 g) obtained from the Janvier establishment, Le Genest-St-Isle, France were used for this study (12 mice per dose). The animals were fed with standard rodent feed (Purina Mills, St. Louis, Mo.), placed in cages and subjected to light/darkness cycles of 12 h/12 h, the temperature of the room being maintained at 22±2° C. and the humidity at 55±10%. The mice were not fasting before administration. Water was supplied ad libitum throughout the study. The assayed compound was administered orally at 10 mg/kg. For oral administration at 10 mg/kg, the animals were force-fed with 10 mL/kg of a suspension of the assayed compound, prepared in methylcellulose 400 cp 1%. The animals were euthanized by anaesthesia at intervals of 15 min, 30 min, 1 h, 3 h, 6 h and 8 h after force-feeding. At each interval, blood was collected and the brain was removed from each euthanized animal. 1 mL of blood collected in 1.5 mL tubes containing 20 μL of evaporated anticoagulant (solution of sodium heparinate at 1000 IU/mL) was centrifuged at 4500 g for 3 min, obtaining about 400 μL of plasma. The plasma was distributed in 2 aliquots of 200 μL which were stored at −20° C. until extraction by protein precipitation and then analysis by liquid chromatography coupled with tandem mass spectrometry (LC-MS/MS) for quantification of the assayed compound. The brains were immersed in liquid nitrogen directly after removal, then stored at −20° C. for analysis. The brains were then ground in the presence of aqueous/organic solvent mixture to obtain a homogenate. These homogenates were then centrifuged and the assayed compound was extracted from the supernatant by liquid-liquid extraction, then quantified by LC-MS/MS.
The pharmacokinetic parameters were determined according to a non-compartmental approach using Excel. The area under curve (AUC0-t) was determined by the linear trapezoidal method. This method allows estimation of the integral of the concentrations over an interval of time (AUC0-t) and is based on the sum of the areas of the trapeziums delimited by the concentrations measured at the time of sampling (example AUC0-8 h=AUC0-0.25 h+AUC0.25 h-0.5 h+AUC0.5 h-t+AUCt-8 h). The penetration of the compounds through the blood-brain barrier is assessed from the ratio of the AUC measured in the brain to that measured in plasma. As an example, with the compounds of examples 32 and 49, the following results were obtained: […]

For data set [4], the system named is mice treated with 1-methyl-4-phenyl-1,2,3,6-tetrahydropyridine (MPTP). Put plainly: MPTP mouse model, dopamine in the striatum. It is filed as in vivo, male C57BL6/J mice. Particulars: oral, twice a day for 11 days; MPTP 25 mg/kg i.p. once a day for 5 days; FIGS. 1 and 2. As for the experimental part: The compounds of examples 32 and 49 were assayed on a model of mice treated with 1-methyl-4-phenyl-1,2,3,6-tetrahydropyridine (MPTP) in order to confirm their potential activities. MPTP is a neurotoxin which causes permanent symptoms of Parkinson's disease by destroying certain neurons in the substantia nigra of the brain. The following procedure was used.
Male C57BL6/J mice aged 10-12 weeks at the start of the studies were distributed in groups of 8 animals. The compounds were administered orally, twice a day for a total of 11 days. Administration began 3 days before the treatment with the MPTP toxin at 25 mg/kg. MPTP was administered once a day by intraperitoneal injection for 5 days. Administration of the assayed compounds was continued for 3 days after the treatment with MPTP. One group of mice received the carrier only (0.5% solution of methylcellulose). The animals were euthanized after the last force-feeding and the striatum was removed. Dopamine was extracted from the striatum and the amount of dopamine (DA) expressed in ng per g of striatum (mean±SEM) was measured by high-performance liquid chromatography (HPLC) with electrochemical detection.

Chain of hNurr1_RXRαFL (NURR1/RXRα heterodimer) (P19793 whole entry, the tested form may be a part): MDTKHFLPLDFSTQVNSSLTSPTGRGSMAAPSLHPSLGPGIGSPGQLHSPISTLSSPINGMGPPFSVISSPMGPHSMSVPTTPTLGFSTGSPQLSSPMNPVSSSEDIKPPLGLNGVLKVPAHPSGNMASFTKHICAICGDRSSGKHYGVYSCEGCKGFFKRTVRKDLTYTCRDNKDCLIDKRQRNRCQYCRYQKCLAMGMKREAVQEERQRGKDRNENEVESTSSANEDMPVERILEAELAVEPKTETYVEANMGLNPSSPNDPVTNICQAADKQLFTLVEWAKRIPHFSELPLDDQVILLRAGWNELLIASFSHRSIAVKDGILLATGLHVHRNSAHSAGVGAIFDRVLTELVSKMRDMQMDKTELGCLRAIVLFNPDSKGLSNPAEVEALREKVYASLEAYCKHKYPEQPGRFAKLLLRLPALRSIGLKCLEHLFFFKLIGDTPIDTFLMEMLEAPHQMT
Chain of hNurr1_RXRαFL (NURR1/RXRα heterodimer) (P43354 328-598): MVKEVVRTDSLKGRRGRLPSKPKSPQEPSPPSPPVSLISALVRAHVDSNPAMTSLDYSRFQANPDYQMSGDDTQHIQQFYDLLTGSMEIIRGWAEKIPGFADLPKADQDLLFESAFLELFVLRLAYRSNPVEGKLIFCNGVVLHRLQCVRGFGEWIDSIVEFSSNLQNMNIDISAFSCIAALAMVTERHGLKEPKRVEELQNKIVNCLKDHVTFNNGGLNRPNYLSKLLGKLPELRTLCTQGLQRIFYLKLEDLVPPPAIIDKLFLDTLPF
Chain of hNurr1_RXRγFL (NURR1/RXRγ heterodimer) (P43354 328-598): as above
Chain of hNurr1_RXRγFL (NURR1/RXRγ heterodimer) (P48443 whole entry, the tested form may be a part): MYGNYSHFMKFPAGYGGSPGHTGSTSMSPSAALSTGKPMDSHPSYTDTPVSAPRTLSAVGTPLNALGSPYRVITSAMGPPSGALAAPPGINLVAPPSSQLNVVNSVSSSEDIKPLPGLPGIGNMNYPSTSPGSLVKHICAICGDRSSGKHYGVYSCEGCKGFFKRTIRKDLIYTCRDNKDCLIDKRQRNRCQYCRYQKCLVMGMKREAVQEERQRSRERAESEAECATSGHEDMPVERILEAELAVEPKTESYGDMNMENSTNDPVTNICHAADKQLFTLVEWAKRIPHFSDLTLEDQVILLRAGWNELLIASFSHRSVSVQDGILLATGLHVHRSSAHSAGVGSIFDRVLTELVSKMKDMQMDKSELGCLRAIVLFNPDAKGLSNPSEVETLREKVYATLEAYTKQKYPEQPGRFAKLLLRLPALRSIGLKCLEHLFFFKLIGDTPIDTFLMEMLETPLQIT

Take `CC(C)(C)c1cccc(S(=O)(=O)n2c(Cc3ccc(C(=O)O)cc3)cc3cc(C(F)(F)F)ccc32)c1` [Example 49, 4-[[1-[[3-(1,1-dimethylethyl)phenyl]sulfonyl]-5-(trifluoromethyl)-1H-indol-2-yl]methyl]benzoic acid]: the Emax in data set [1] amounted to 71%; in data set [2], 73%. In addition, the EC50 worked out at 110 nM in data set [1] and 48 nM in data set [2]. For the same compound, in data set [3] (male, C57B16, brain/plasma, read-out: Ratio AUCbrain/AUCplasma), the Kp amounted to 0.8. In addition, in data set [3], the AUCbrain amounted to 10491 ng·h/mL. In data set [4], the “effect on the MPTP-induced decrease of dopamine in the striatum” value is “dose-dependent decrease in the action of MPTP”.
The compound `CC(C)(C)c1cccc(S(=O)(=O)n2c(Cc3ccc(C(=O)O)cc3F)cc3cc(C(F)(F)F)ccc32)c1` [Example 67, 4-[[1-[[3-(1,1-dimethylethyl)phenyl]sulfonyl]-5-trifluoromethyl-1H-indol-2-yl]methyl]-3-fluorobenzoic acid] gave a melting point of 177 °C. In data set [1], the Emax is 75% and the EC50 was 91 nM. In addition, in data set [2], the Emax is 73% and the EC50 worked out at 28 nM.
For `CC(C)c1ccc(S(=O)(=O)n2c(Cc3ccc(C(=O)O)c(F)c3)cc3cc(C(F)(F)F)ccc32)cc1` [Example 2, 2-fluoro-4-[[1-[[4-(1-methylethyl)phenyl]sulfonyl]-5-(trifluoromethyl)-1H-indol-2-yl]methyl]benzoic acid], the melting point came out at 197 °C. In data set [1], the Emax was found to be 43% and the EC50 is 724 nM. Besides, in data set [2], the Emax stood at 63% and the EC50 was found to be 657 nM.
In the case of `CC(C)(C)c1cccc(S(=O)(=O)n2c(Cc3ccc(C(=O)O)c(O)c3)cc3cc(C(F)(F)F)ccc32)c1` [Example 56], the melting point worked out at 129 °C. Moreover, in data set [1], the Emax came to 51% and the 50% effective concentration (EC50) was determined as 417 nM. In addition, in data set [2], the Emax was found to be 82% and the EC50 amounted to 1160 nM.
On the same counts, the results for `Cc1c(Cc2ccc(C(=O)O)s2)n(S(=O)(=O)c2cccc(C(C)(C)C)c2)c2ccc(C(F)(F)F)cc12` [Example 85, 5-[[1-[[3-(1,1-dimethylethyl)-phenyl]sulfonyl]-3-methyl-5-trifluoromethyl-1H-indol-2-yl]methyl]-thiophene-2-carboxylic acid] are 171 °C, 73%, 115 nM, 87% and 53 nM.
In the case of `CCC(C)(C)c1ccc(S(=O)(=O)n2c(Cc3ccc(C(=O)O)cc3)cc3cc(C(F)(F)F)ccc32)cc1` [Example 12, 4-[[1-[[4-(1,1-dimethylpropyl)phenyl]sulfonyl]-5-(trifluoromethyl)-1H-indol-2-yl]methyl]benzoic acid], the Emax in data set [1] came to 45%; in data set [2], 54%. Besides, the figures for the EC50 in data set [1] and in data set [2] were 148 nM and 113 nM, respectively.
On the same counts, the results for `O=C(O)c1ccc(Cc2cc3cc(C(F)(F)F)ccc3n2S(=O)(=O)c2ccc3ccccc3c2)cc1` [Example 25, 4-[[1-(2-naphthalenylsulfonyl)-5-(trifluoromethyl)-1H-indol-2-yl]methyl]benzoic acid] are 33%, 47%, 864 nM and 496 nM.
On the same counts, the results for `O=C(O)c1ccc(Cc2cc3cc(C(F)(F)F)ccc3n2S(=O)(=O)c2cccc(Cl)c2)cc1` [Example 143, 4-[[1-[3-chloro-phenylsulfonyl]-5-(trifluoromethyl)-1H-indol-2-yl]methyl]benzoic acid] are 18%, 33%, 425 nM and 339 nM.
Consider `CCCc1ccc(S(=O)(=O)n2c(Cc3ccc(C(=O)O)cc3)cc3cc(Cl)ccc32)cc1` [Example 152, 4-[[1-[4-propyl-phenylsulfonyl]-5-(chloro)-1H-indol-2-yl]methyl]benzoic acid], for which, in data set [1], the Emax amounted to 75% and the response was half-maximal at 858 nM (EC50). Further, in data set [2], the Emax was found to be 87% and the EC50 worked out at 269 nM.
In the case of `O=C(O)c1ccc(Cc2cc3cc(Cl)ccc3n2S(=O)(=O)c2ccc(OC(F)(F)F)cc2)cc1` [Example 156, 4-[[1-[4-trifluoromethoxy-phenylsulfonyl]-5-(chloro)-1H-indol-2-yl]methyl]benzoic acid], in data set [1], the Emax is 43% and the EC50 was 1300 nM. Besides, in data set [2], the Emax was 69% and the 50% effective concentration (EC50) worked out at 638 nM.
On the same counts, the results for `COc1cccc(S(=O)(=O)n2c(Cc3ccc(C(=O)O)cc3)cc3cc(Cl)ccc32)c1` [Example 166, 4-[[1-[3-methoxy-phenylsulfonyl]-5-(chloro)-1H-indol-2-yl]methyl]benzoic acid] are 27%, 1070 nM, 50% and 681 nM.
Take `O=C(O)c1ccc(Cc2cc3cc(Cl)ccc3n2S(=O)(=O)c2ccc3c(c2)OCCCO3)cc1` [Example 178]: in data set [1], the Emax is 36% and the EC50 came out at 1200 nM. In data set [2], the Emax stood at 45% and the response was half-maximal at 1030 nM (EC50).
On the same counts, the results for `CC(C)(C)c1cccc(S(=O)(=O)n2c(Cc3ccc(C=C4SC(=S)NC4=O)cc3)cc3cc(C(F)(F)F)ccc32)c1` [Example 223] are 30%, 3390 nM, 72% and 1320 nM.
For `COC(=O)c1ccc(Cc2c(F)c3cc(C(F)(F)F)ccc3n2S(=O)(=O)c2cccc(C(C)(C)C)c2)cc1` [Example 148, 4-[[1-[[3-(1,1-dimethylethyl)phenyl]sulfonyl]-3-fluoro-5-(trifluoromethyl)-1H-indol-2-yl]methyl]-benzoic acid, methyl ester], in data set [1], the Emax came out at 101% and the EC50 is 121 nM. Also, in data set [2], the Emax was determined as 119% and the response was half-maximal at 62 nM (EC50).
Regarding `CC(C)(C)c1cccc(S(=O)(=O)n2c(Cc3ccc(C(=O)O)o3)cc3cc(C(F)(F)F)ccc32)c1` [Example 69, 5-[[1-[[3-(1,1-dimethylethyl)-phenyl]sulfonyl]-5-trifluoromethyl-1H-indol-2-yl]methyl]-furan-2-carboxylic acid], in data set [1], the Emax was 72% and the EC50 is 15 nM. Also, in data set [2], the Emax worked out at 79% and a half-maximal response (EC50) required 9 nM.
For `Cc1ccc(S(=O)(=O)n2c(Cc3ccc(C(=O)O)cc3)cc3cc(C(F)(F)F)ccc32)cc1` [Example 134], in data set [1], the Emax stood at 36% and the response was half-maximal at 552 nM (EC50). Also, in data set [2], the Emax amounted to 50% and the EC50 is 212 nM.

The values above are taken from patent US20120232070A1, “Use of Indole Derivatives as Nurr-1 Activators for the Application Thereof as a Medicament for the Treatment of Parkinson's Disease” (Laboratoires Fournier SA, priority 2009, published 2012).
